From ChEMBL document CHEMBL1128859, “Cmi-206: A potent dual platelet activating factor antagonist and 5-lipoxygenase inhibitor” (Bioorg Med Chem Lett, 1995)

What was measured:
[1] = molecular target: T1, Polyunsaturated fatty acid 5-lipoxygenase (Rattus norvegicus, UniProt P12527); assay: In vitro inhibition of 5-lipoxygenase in RBL-2H3 (Rat basophilic leukemia) cells.; assay type: functional, cell-based
T1 sequence (P12527 whole entry): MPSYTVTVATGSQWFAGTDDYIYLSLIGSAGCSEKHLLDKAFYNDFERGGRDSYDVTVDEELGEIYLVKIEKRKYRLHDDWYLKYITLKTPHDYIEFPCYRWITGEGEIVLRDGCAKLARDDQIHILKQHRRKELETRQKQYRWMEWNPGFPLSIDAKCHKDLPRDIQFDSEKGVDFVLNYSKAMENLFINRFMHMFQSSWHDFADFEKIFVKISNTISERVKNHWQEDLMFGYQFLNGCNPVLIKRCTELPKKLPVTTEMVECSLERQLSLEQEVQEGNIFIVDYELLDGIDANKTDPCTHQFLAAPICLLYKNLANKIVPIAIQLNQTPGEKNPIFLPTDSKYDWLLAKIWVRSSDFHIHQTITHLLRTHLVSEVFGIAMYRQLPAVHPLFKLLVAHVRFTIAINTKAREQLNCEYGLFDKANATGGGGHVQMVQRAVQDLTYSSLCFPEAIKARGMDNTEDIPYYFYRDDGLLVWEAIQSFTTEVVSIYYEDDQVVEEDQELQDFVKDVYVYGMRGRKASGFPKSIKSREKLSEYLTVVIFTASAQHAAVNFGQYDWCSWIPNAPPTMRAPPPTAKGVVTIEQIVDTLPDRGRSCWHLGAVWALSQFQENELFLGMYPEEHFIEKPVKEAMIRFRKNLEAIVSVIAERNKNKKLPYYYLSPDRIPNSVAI

[2] = molecular target: Platelet-activating factor receptor (Homo sapiens, UniProt P25105); assay: In vitro affinity for human PAF receptor on platelet membranes using [3H]PAF displacement.
Homo sapiens [3] = organism: Homo sapiens; assay: Inhibition of human whole blood (HWB) LTB4 production in A-23,187-activated human whole blood by the enzyme immunoassay at a dose of 3 uM; assay type: functional
Homo sapiens [4] = organism: Homo sapiens; assay: Inhibition of human whole blood (HWB) LTB4 production in A-23,187-activated human whole blood by the enzyme immunoassay; assay type: functional
Mus musculus [5] = assay: Ability to antagonize PAF-induced hemoconcentration PAF HTc in mice at a dose of 3 mg/kg; assay type: functional
Mus musculus [6] = assay: Arachidonic acid (AA)-induced ear edema in mice was determined by topically applying AA to ears of mice; assay type: functional
Rattus norvegicus = assay: Concentration of LTB4 was determined by enzyme immunoassay (Ex vivo) rat whole blood after intravenous administration of 5 mg/Kg; assay type: functional

Chain of Platelet-activating factor receptor (P25105 whole entry): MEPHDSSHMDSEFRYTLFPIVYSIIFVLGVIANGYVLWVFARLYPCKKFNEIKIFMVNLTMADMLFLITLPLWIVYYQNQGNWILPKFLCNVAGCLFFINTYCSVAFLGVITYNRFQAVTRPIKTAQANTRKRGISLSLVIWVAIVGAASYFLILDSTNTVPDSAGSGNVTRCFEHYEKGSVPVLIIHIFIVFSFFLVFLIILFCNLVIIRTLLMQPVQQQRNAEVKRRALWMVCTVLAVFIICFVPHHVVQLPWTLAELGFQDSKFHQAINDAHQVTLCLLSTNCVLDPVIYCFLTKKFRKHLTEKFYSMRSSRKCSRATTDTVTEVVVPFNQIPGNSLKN

Row | SMILES | IC50 [1] | IC50 [2] | other results
1 | CCCOc1c(NC(=O)N(O)C(C)(C)C)cc(C2CCC(c3cc(OC)c(OC)c(OC)c3)O2)cc1OC (trans isomer) | 2900 nM | 26 nM | 
2 | CCCOc1c(NC(=O)N(O)C2CCCCC2)cc(C2CCC(c3cc(OC)c(OC)c(OC)c3)O2)cc1OC (cis isomer) | 2540 nM | 1000 nM | 
3 | CCCNC(=O)N(O)c1cc([C@H]2CC[C@H](c3cc(OC)c(OC)c(OC)c3)O2)cc(OCCC)c1OCCC | 3000 nM | 91 nM | 
4 | CCCOc1c(NC(=O)NO)cc(C2CCC(c3cc(OC)c(OC)c(OC)c3)O2)cc1OC (trans isomer) |  | 30 nM | 
5 | CCCOc1c(NC(=O)N(O)C(C)CC)cc(C2CCC(c3cc(OC)c(OC)c(OC)c3)O2)cc1OC (trans isomer) | 600 nM | 25 nM | inhibition at 3 µM (Homo sapiens [3]): 57%
6 | CCCOc1cc([C@H]2CC[C@H](c3cc(OC)c(OC)c(OC)c3)O2)cc(N(O)C(=O)NCC)c1OCCC |  | 59 nM | 
7 | CCCOc1c(NC(=O)N(O)C(C)(C)C)cc(C2CCC(c3cc(OC)c(OC)c(OC)c3)O2)cc1OC (cis isomer) |  | 456 nM | 
8 | CCCOc1c(NC(=O)N(O)CC)cc(C2CCC(c3cc(OC)c(OC)c(OC)c3)O2)cc1OC (stereo in doubt) | 3000 nM | 383 nM | 
9 | CCCCN(O)C(=O)Nc1cc(C2CCC(c3cc(OC)c(OC)c(OC)c3)O2)cc(OC)c1OCCC (cis isomer) | 500 nM | 1310 nM | 
10 | CC(c1cc2ccccc2s1)N(O)C(N)=O (stereo not given) [ZILEUTON] |  |  | inhibition at 3 µM (Homo sapiens [3]): 75%
11 | CCCOc1c(NC(=O)N(O)Cc2ccccc2)cc(C2CCC(c3cc(OC)c(OC)c(OC)c3)O2)cc1OC (trans isomer) | 2240 nM | 423 nM | 
12 | CCCOc1c(NC(=O)N(O)CCC)cc(C2CCC(c3cc(OC)c(OC)c(OC)c3)O2)cc1OC (stereo in doubt) | 10000 nM |  | 
13 | CCCOc1c(NC(=O)N(C)O)cc(C2CCC(c3cc(OC)c(OC)c(OC)c3)O2)cc1OC (trans isomer) | 630 nM | 17 nM | 
14 | CCCOc1cc([C@H]2CC[C@H](c3cc(OC)c(OC)c(OC)c3)O2)cc(N(CC)C(=O)N(O)CC)c1OCCC | 1340 nM | 17 nM | 
15 | CCCOc1c(NC(=O)N(O)C(C)CC)cc(C2CCC(c3cc(OC)c(OC)c(OC)c3)O2)cc1OC (cis isomer) | 450 nM | 1610 nM | 
16 | CCCOc1c(NC(=O)NO)cc(C2CCC(c3cc(OC)c(OC)c(OC)c3)O2)cc1OC (stereo in doubt) |  | 300 nM | 
17 | CCCOc1cc([C@H]2CC[C@H](c3cc(OC)c(OC)c(OC)c3)O2)cc(N(CC)C(=O)N(O)CCC)c1OCCC |  | 56 nM | 
18 | CCCOc1c(NC(=O)N(C)O)cc(C2CCC(c3cc(OC)c(OC)c(OC)c3)O2)cc1OC (cis isomer) |  | 514 nM | 
19 | CCCOc1c(NC(=O)N(O)CCC)cc(C2CCC(c3cc(OC)c(OC)c(OC)c3)O2)cc1OC (trans isomer) |  |  | IC50 ([1]; rbl-2h3): 10000 nM
20 | CCCOc1c(NC(=O)N(O)C(C)C)cc(C2CCC(c3cc(OC)c(OC)c(OC)c3)O2)cc1OC (stereo in doubt) | 2830 nM | 858 nM | 
21 | CCCCN(O)C(=O)Nc1cc(C2CCC(c3cc(OC)c(OC)c(OC)c3)O2)cc(OC)c1OCCC (stereo in doubt) | 420 nM | 33 nM | inhibition at 3 µM (Homo sapiens [3]): 64%; IC50 (Homo sapiens [4]): 1680 nM; inhibition in vivo at 3 mg/kg (Mus musculus [5]): 31%; Inhibition (Mus musculus [6]): 60%; inhibition in vivo at 5 mg/kg (Rattus norvegicus): 67%
22 | CCCOc1c(NC(=O)N(O)CC)cc(C2CCC(c3cc(OC)c(OC)c(OC)c3)O2)cc1OC (trans isomer) | 150 nM | 8 nM | inhibition at 3 µM (Homo sapiens [3]): 23%; inhibition in vivo at 3 mg/kg (Mus musculus [5]): 58%
23 | CCCOc1cc([C@H]2CC[C@H](c3cc(OC)c(OC)c(OC)c3)O2)cc(N(CC)C(=O)N(C)O)c1OCCC | 3070 nM | 68 nM | 
24 | CCCOc1c(NC(=O)N(O)C2CCCCC2)cc(C2CCC(c3cc(OC)c(OC)c(OC)c3)O2)cc1OC (trans isomer) |  | 278 nM | 
25 | CCCOc1c(NC(=O)N(O)C(C)C)cc(C2CCC(c3cc(OC)c(OC)c(OC)c3)O2)cc1OC (trans isomer) | 3000 nM | 58 nM | 
26 | CCCOc1c(NC(=O)N(O)Cc2ccccc2)cc(C2CCC(c3cc(OC)c(OC)c(OC)c3)O2)cc1OC (cis isomer) | 8000 nM | 585 nM | 
